Read-outs that look alike come from different tables or passages of the source.
Assays:
GluA2 = biological target: T1, GluA2 (Rattus norvegicus, UniProt P19491); test: Whole-cell patch clamp recordings of homomeric GluA2 AMPA receptor currents and kinetics in transfected HEK293t cells; assay type: cell-based; settings: for Amplitude (peak whole-cell current in presence of compound): 16 µM compound co-applied with agonist, HEK293t, −60 mV, pH 7.4, 22 °C; for Amplitude (peak whole-cell current in presence of compound) / A/AI (amplitude ratio, glutamate alone / with compound) / t deact (weighted deactivation time constant) / t des (weighted desensitization time constant) / Amplitude, applying glutamate alone after compound: mean ± SD; for Amplitude (peak whole-cell current in presence of compound) / A/AI (amplitude ratio, glutamate alone / with compound) / Amplitude, applying glutamate alone after compound: n = 10; for A/AI (amplitude ratio, glutamate alone / with compound): 16 µM compound; for t deact (weighted deactivation time constant): 10 mM glutamate for 1 ms; for t deact (weighted deactivation time constant) / t des (weighted desensitization time constant): with compound; for t des (weighted desensitization time constant): 10 mM glutamate for 500 ms; for Amplitude, applying glutamate alone after compound: glutamate alone after the compound; for Effect on deactivation kinetics (τdeac), in words / Effect on desensitization kinetics (τdes), in words: versus glutamate alone, one-way ANOVA
T1 construct: expressed in transfected cells; host or cells: HEK293T (HEK293) cells, transient co-transfection with a separate EGFP vector
T1 sequence (P19491 22-883 isoform P19491-2 limits assumed): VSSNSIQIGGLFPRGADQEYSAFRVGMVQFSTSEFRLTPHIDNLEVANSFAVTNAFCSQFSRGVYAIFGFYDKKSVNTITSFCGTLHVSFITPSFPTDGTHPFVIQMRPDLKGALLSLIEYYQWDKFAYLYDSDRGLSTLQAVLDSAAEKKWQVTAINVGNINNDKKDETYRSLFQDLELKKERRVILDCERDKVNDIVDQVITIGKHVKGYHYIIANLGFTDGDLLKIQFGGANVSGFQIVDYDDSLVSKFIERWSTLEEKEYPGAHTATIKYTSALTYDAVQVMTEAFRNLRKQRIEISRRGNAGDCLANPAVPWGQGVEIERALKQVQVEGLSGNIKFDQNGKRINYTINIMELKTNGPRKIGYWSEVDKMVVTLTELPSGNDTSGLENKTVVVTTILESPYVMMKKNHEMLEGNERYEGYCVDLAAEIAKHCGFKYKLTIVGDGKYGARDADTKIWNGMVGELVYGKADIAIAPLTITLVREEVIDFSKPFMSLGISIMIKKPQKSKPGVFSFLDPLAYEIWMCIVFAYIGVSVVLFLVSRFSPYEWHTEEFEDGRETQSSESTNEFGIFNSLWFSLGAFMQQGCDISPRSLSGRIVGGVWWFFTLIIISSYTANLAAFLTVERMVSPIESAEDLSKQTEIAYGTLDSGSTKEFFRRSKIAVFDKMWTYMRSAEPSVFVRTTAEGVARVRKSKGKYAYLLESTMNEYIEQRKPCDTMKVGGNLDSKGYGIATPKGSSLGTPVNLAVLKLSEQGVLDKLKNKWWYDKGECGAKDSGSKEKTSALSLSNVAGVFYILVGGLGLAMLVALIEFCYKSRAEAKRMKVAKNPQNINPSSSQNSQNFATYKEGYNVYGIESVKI
From the text: (§1) The AMPA receptor subunits utilized in this study were of the flip isoform. The flip variant of the GluA2 subunit was originally provided by S. F. Heinemann (Salk Institute, La Jolla, CA, USA) in a pBlueScript plasmid. This plasmid was subsequently sub-cloned into a pRK vector to enable expression in HEK293 cells, which were sourced from Sigma, Germany. Additionally, the unedited version of GluA2 (R607Qjj, flip isoform) and enhanced green fluorescent protein (EGFP), both contained in pRK5 vectors, were generously supplied by P. H. Seeburg (Max Planck Institute for Medical Research, Heidelberg, Germany). Chemical-mediated ways induced transfection. GluA2 homomers were expressed into HEK293 cells by the co-transfection of 1 μg GluA2 plasmid with an equal amount of GFP expression vectors (1:1 ratio) into the cells. In addition, co-transfection was conducted for heteromeric GluA2/3 subunits at a ratio of 1:1.2 for optimum expression. For post-transfection experiments, cells were plated in 10% fetal calf serum and antibiotics in DMEM in Petri plates. These cultures were maintained under carefully controlled conditions—37 °C and 5% CO2 within a humidified incubator. The selection of cells for recordings was based on fluorescence intensity. Highly GFP-positive cells were identified and isolated for further analysis, ensuring precise targeting of transfected populations.
(§2) Whole-cell patch clamp recordings were performed on HEK293t cells 36–48 h after transfection. Experiments were conducted at 22 °C, maintaining a holding potential of −60 mV, using an Integrated Patch Amplifier (IPA) from Sutter Instruments (Novato, CA, USA). Data acquisition was managed with SutterPatch Software v. 1.1.1 (Sutter Instruments), employing a sampling rate of 10 kHz and setting the low-pass filter at 2 kHz. […] The external solution contained 150 mM NaCl, 2.8 mM KCl, 0.5 mM MgCl2, 2 mM CaCl2, and 10 mM HEPES, adjusted to a pH of 7.4 using NaOH. The internal pipette solution was composed of 110 mM CsF, 30 mM CsCl, 4 mM NaCl, 0.5 mM CaCl2, 10 mM trypsin-EDTA solution B (0.25%), 0.05% EDTA, and 10 mM HEPES, with the pH adjusted to 7.2 using CsOH.
(§3) A dual-barrel glass pipette (theta tube) was employed for the rapid delivery of glutamate and other solutions. The theta tube was attached to a high-speed piezoelectric solution exchange system (Automate Scientific, Berkeley, CA, USA). To assess the efficiency of solution exchange, open-tip potentials were measured by applying solutions with different ionic compositions after the patch was expelled from the pipette. The time required for a 10–90% change in the solution was generally less than […].
(§4) Data analysis was performed with Igor Pro8.04 software (Wave Metrics, Inc., Portland, OR, USA). AMPA receptor deactivation and desensitization kinetics were measured by applying 10 mM glutamate for 1 ms and 500 ms, respectively. The currents from the AMPA receptor were fitted to a double-exponential model to quantify deactivation and desensitization time constants measured from the double-exponential fits. The weighted tau (τw) is calculated as: τw = (τf × af) + (τs × as), where τf and τs are the time constants of fast and slow exponential components and af and as represent their relative amplitudes.
(§5) Data are presented as the mean ± standard deviation (SD). The total number of HEK293 cells engaged was n = 10. The experimental groups were compared to the wild type using a one-way analysis of variance (ANOVA). Statistical significance was assessed using p values: p < 0.05 (*) indicated significance, p < 0.01 (**) indicated high significance, and p < 0.001 (***) indicated very high significance. The value “ns” indicates non-significance. Concentration–response relationships were modeled using the Hill equation with the resulting combined plots via GraphPad Prism software (version 6.01, GraphPad Software). The data presented are the means from 3–4 experimental replicates. […]

GluA2/3 = biological target: T2, GluA2/3 (UniProt P19491+P42263); test: Whole-cell patch clamp recordings of heteromeric GluA2/3 AMPA receptor currents and kinetics in transfected HEK293t cells; assay type: cell-based; settings: for Amplitude (peak whole-cell current in presence of compound): 16 µM compound co-applied with agonist, HEK293t, −60 mV, pH 7.4, 22 °C; for Amplitude (peak whole-cell current in presence of compound) / A/AI (amplitude ratio, glutamate alone / with compound) / t deact (weighted deactivation time constant) / t des (weighted desensitization time constant) / Amplitude, applying glutamate alone after compound: mean ± SD; for Amplitude (peak whole-cell current in presence of compound) / A/AI (amplitude ratio, glutamate alone / with compound) / Amplitude, applying glutamate alone after compound: n = 10; for A/AI (amplitude ratio, glutamate alone / with compound): 16 µM compound; for t deact (weighted deactivation time constant): 10 mM glutamate for 1 ms; for t deact (weighted deactivation time constant) / t des (weighted desensitization time constant): with compound; for t des (weighted desensitization time constant): 10 mM glutamate for 500 ms; for Amplitude, applying glutamate alone after compound: glutamate alone after the compound; for Effect on deactivation kinetics (τdeac), in words / Effect on desensitization kinetics (τdes), in words: versus glutamate alone, one-way ANOVA
T2 construct: expressed in transfected cells; host or cells: HEK293T (HEK293) cells, transient co-transfection
T2 sequence (P19491 22-883 isoform P19491-2 limits assumed): as above
T2 sequence (P42263 29-894 isoform P42263-2 limits assumed): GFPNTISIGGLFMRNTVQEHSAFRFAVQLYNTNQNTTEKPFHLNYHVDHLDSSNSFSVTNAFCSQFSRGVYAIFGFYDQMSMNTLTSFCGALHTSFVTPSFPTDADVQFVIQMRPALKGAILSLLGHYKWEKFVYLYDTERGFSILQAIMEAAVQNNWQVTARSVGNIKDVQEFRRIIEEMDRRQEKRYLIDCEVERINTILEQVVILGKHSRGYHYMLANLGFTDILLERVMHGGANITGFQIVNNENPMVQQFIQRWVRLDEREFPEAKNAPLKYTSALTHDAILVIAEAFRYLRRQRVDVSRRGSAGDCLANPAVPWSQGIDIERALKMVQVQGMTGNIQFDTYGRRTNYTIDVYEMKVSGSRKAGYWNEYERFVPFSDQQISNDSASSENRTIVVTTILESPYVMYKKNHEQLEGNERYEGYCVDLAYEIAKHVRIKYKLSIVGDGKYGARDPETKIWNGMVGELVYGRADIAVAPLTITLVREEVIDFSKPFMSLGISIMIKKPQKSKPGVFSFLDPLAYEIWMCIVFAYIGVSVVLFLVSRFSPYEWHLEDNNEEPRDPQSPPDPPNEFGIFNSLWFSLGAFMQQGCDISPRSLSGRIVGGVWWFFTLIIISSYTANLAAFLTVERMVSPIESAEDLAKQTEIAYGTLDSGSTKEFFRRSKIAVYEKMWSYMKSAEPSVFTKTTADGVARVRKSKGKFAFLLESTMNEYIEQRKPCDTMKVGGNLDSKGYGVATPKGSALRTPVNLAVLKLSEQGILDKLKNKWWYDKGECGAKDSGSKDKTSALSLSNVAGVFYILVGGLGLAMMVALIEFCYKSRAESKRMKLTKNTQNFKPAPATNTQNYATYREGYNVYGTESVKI
From the text: as §1, §2, §3, §4, §5

[1] = concentration–response fit, read-out: Log IC50 (converted)
[2] = inhibition of whole-cell peak current, concentration–response, Hill fit, read-out: IC50

| Structure (SMILES) | Amplitude (peak whole-cell current in presence of compound) (GluA2) [pA] | A/AI (amplitude ratio, glutamate alone / with compound) (GluA2) | t deact (weighted deactivation time constant) (GluA2) [ms] | t des (weighted desensitization time constant) (GluA2) [ms] | IC50 (GluA2; [1]) [µM] | Amplitude, applying glutamate alone after compound (GluA2) [pA] | IC50 (GluA2; [2]) [µM] | Effect on deactivation kinetics (τdeac), in words (GluA2) | Effect on desensitization kinetics (τdes), in words (GluA2) | Amplitude (peak whole-cell current in presence of compound) (GluA2/3) [pA] | A/AI (amplitude ratio, glutamate alone / with compound) (GluA2/3) | t deact (weighted deactivation time constant) (GluA2/3) [ms] | t des (weighted desensitization time constant) (GluA2/3) [ms] | IC50 (GluA2/3; [1]) [µM] | Amplitude, applying glutamate alone after compound (GluA2/3) [pA] | IC50 (GluA2/3; [2]) [µM] | Effect on deactivation kinetics (τdeac), in words (GluA2/3) | Effect on desensitization kinetics (τdes), in words (GluA2/3) |
| --- | --- | --- | --- | --- | --- | --- | --- | --- | --- | --- | --- | --- | --- | --- | --- | --- | --- | --- |
| COc1cc(NC(=O)c2c(-c3c(Cl)cccc3Cl)noc2C)cc(OC)c1OC [CIC-4, 3-(2,6-dichlorophenyl)-5-methyl-N-(3,4,5-trimethoxyphenyl)isoxazole-4-carboxamide] | 250±22 | 5.0±0.23 | 5.6 ± 0.3 | 1.1 ± 0.1 | 5.25 | 1220±157 | 5.26 | statistically significant prolongation of τdeac | accelerated desensitization, although to a lesser degree | 110±16 | 4.97±0.23 | 5.7 ± 0.3 | 1.1 ± 0.1 | 5.37 | 531±89 | 5.4 | statistically significant prolongation of τdeac | accelerated desensitization, although to a lesser degree |
| COc1ccc(NC(=O)c2c(-c3c(Cl)cccc3Cl)noc2C)c(OC)c1 [CIC-5, 3-(2,6-dichlorophenyl)-N-(2,4-dimethoxyphenyl)-5-methylisoxazole-4-carboxamide] | 228±15 | 5.42±0.07 | 6.1 ± 0.3 | 1.0 ± 0.1 | 5.01 | 1198±99 | 5.03 | statistically significant prolongation of τdeac | accelerated desensitization, although to a lesser degree | 105±7 | 5.37±016 | 6.2 ± 0.3 | 1.0 ± 0.1 | 5.13 | 548±40 | 5.14 | statistically significant prolongation of τdeac | accelerated desensitization, although to a lesser degree |
| COc1ccccc1Oc1ccc(NC(=O)c2c(-c3c(Cl)cccc3Cl)noc2C)cc1 [CIC-7, 3-(2,6-dichlorophenyl)-N-(4-(2-methoxyphenoxy)phenyl)-5-methylisoxazole-4-carboxamide] | 280±13 | 4.53±0.21 | 5.1 ± 0.2 | 1.7 ± 0.1 | 6.03 | 1231±106 | 6.03 | statistically significant prolongation of τdeac | accelerated desensitization, although to a lesser degree | 120±15 | 4.49±0.21 | 5.2 ± 0.2 | 1.8 ± 0.1 | 6.17 | 524±76 | 6.14 | statistically significant prolongation of τdeac | accelerated desensitization, although to a lesser degree |

From PMC11932207, “Regulating AMPA Receptors with Isoxazole-4-Carboxamide Derivatives: An Electrophysiological Study” (Journal of Xenobiotics, 2025)
